Source: ChEMBL document CHEMBL1201862, “PubChem BioAssay data set” (2004)
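Assay format: 96-well plates, 48-hour exposure. Here, GI50 denotes the concentration required for 50% inhibition of growth.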 Activity calls are given as the source filed them. Cut-off read from the data, not from the text of the source: active = GI50 up to about 1.1 µM and inactive = higher.

Key:
Test in all cases: inhibition of tumour cell growth, NCI panel, 48 h
HT-29 = tested on: HT-29
UACC-257 = tested on: UACC-257
KM12 = tested on: KM12
SNB-19 = tested on: SNB-19
K562 = tested on: K562
MOLT-4 = tested on: MOLT-4
RXF 393 = tested on: RXF 393
ACHN = tested on: ACHN
SK-MEL-28 = tested on: SK-MEL-28
UO-31 = tested on: UO-31
RPMI-8226 = tested on: RPMI-8226
OVCAR-8 = tested on: OVCAR-8
UACC-62 = tested on: UACC-62
OVCAR-4 = tested on: OVCAR-4
TK-10 = tested on: TK-10
M14 = tested on: M14
LOX IMVI = tested on: LOX IMVI

Compound | GI50 (HT-29) | GI50 (UACC-257) | GI50 (KM12) | GI50 (SNB-19) | GI50 (K562) | GI50 (MOLT-4) | GI50 (RXF 393) | GI50 (ACHN) | GI50 (SK-MEL-28) | GI50 (UO-31) | GI50 (RPMI-8226) | GI50 (OVCAR-8) | GI50 (UACC-62) | GI50 (OVCAR-4) | GI50 (TK-10) | GI50 (M14) | GI50 (LOX IMVI)
O=[N+]([O-])c1ccc(/C=N/C23CC4CC(CC(C4)C2)C3)cc1 | > 100 µM (inactive) | > 100 µM (inactive) | > 100 µM (inactive) | > 100 µM (inactive) | 54.7 µM (inactive) | > 100 µM (inactive) | > 100 µM (inactive) | > 100 µM (inactive) | > 100 µM (inactive) | > 100 µM (inactive) | > 100 µM (inactive) | > 100 µM (inactive) | > 100 µM (inactive) | > 100 µM (inactive) | > 100 µM (inactive) | > 100 µM (inactive) | 85.7 µM (inactive)
CN(C)/C=C/C(=O)c1cccc(C(=O)/C=C/N(C)C)n1 | > 100 µM (inactive) | > 100 µM (inactive) | > 100 µM (inactive) | > 100 µM (inactive) | > 100 µM (inactive) | > 100 µM (inactive) | > 100 µM (inactive) | > 100 µM (inactive) | > 100 µM (inactive) | > 100 µM (inactive) | > 100 µM (inactive) | 80.4 µM (inactive) | > 100 µM (inactive) | > 100 µM (inactive) | > 100 µM (inactive) | > 100 µM (inactive) | > 100 µM (inactive)
O=C1c2c(c3c4ccccc4n(CC4CO4)c3c3[nH]c4ccccc4c23)C(=O)N1Cc1ccccc1 (stereo not drawn) | > 100 µM (inactive) | > 100 µM (inactive) | > 100 µM (inactive) | > 100 µM (inactive) | 95.7 µM (inactive) | 38.6 µM (inactive) | > 100 µM (inactive) |  | > 100 µM (inactive) | > 100 µM (inactive) | > 100 µM (inactive) | 48.2 µM (inactive) | > 100 µM (inactive) | 33 µM (inactive) | > 100 µM (inactive) | > 100 µM (inactive) | > 100 µM (inactive)
N#CCN1C(=O)c2cc([N+](=O)[O-])cc3cc([N+](=O)[O-])cc(c23)C1=O | 16.8 µM (inactive) | 15.1 µM (inactive) | 11.2 µM (inactive) | 24.2 µM (inactive) | 5.68 µM (inactive) | 2.38 µM (inactive) | 8.28 µM (inactive) | 13.2 µM (inactive) | 19 µM (inactive) | 13.8 µM (inactive) | 5.51 µM (inactive) | 13.8 µM (inactive) | 12.4 µM (inactive) | 14.8 µM (inactive) | 27.7 µM (inactive) | 17 µM (inactive) | 6.41 µM (inactive)
O=c1c2ccccc2nc(-c2cccc(Cl)c2)n1NCC1(O)OCC(O)C(O)C1O (stereo not drawn) | > 100 µM (inactive) | > 100 µM (inactive) | > 100 µM (inactive) | > 100 µM (inactive) | 45.7 µM (inactive) | 48.2 µM (inactive) | 51.9 µM (inactive) | > 100 µM (inactive) | > 100 µM (inactive) | > 100 µM (inactive) | 41.1 µM (inactive) | > 100 µM (inactive) | > 100 µM (inactive) | > 100 µM (inactive) |  | > 100 µM (inactive) | > 100 µM (inactive)
CN1C(=O)N(c2nc3ccccc3[nH]2)C(C)(C)C1=O | > 100 µM (inactive) | > 100 µM (inactive) | > 100 µM (inactive) | > 100 µM (inactive) | > 100 µM (inactive) | > 100 µM (inactive) | > 100 µM (inactive) | > 100 µM (inactive) | > 100 µM (inactive) | > 100 µM (inactive) | > 100 µM (inactive) | > 100 µM (inactive) | > 100 µM (inactive) | > 100 µM (inactive) |  | > 100 µM (inactive) | > 100 µM (inactive)
CCOC(=O)C1=C(C)N(c2ccc(C)cc2)C2=C(C(=O)N(c3ccccc3)C2c2ccccc2)C1c1ccccc1 (stereo not drawn) | > 25 µM (inactive) | > 25 µM (inactive) |  | > 25 µM (inactive) | 19.8 µM (inactive) | 7.82 µM (inactive) | 0.558 µM (active) | 16.6 µM (inactive) | > 25 µM (inactive) | 21 µM (inactive) | 14 µM (inactive) | > 25 µM (inactive) | 17.2 µM (inactive) | 11.3 µM (inactive) | > 25 µM (inactive) | > 25 µM (inactive) | > 25 µM (inactive)
CCOC(=O)c1[nH]c(COC(C)=O)c(CCCOC(C)=O)c1CCCOC(C)=O | > 100 µM (inactive) | > 100 µM (inactive) | > 100 µM (inactive) | > 100 µM (inactive) | > 100 µM (inactive) | > 100 µM (inactive) | > 100 µM (inactive) | > 100 µM (inactive) | > 100 µM (inactive) |  |  | > 100 µM (inactive) |  | > 100 µM (inactive) | > 100 µM (inactive) |  | > 100 µM (inactive)
ClC/C=C/COC1CCCCO1 (stereo not drawn) | > 100 µM (inactive) | 45.7 µM (inactive) | > 100 µM (inactive) | > 100 µM (inactive) | > 100 µM (inactive) | 29 µM (inactive) | > 100 µM (inactive) | 60.5 µM (inactive) |  | > 100 µM (inactive) | 54.2 µM (inactive) | 57.5 µM (inactive) | 84.1 µM (inactive) | > 100 µM (inactive) | > 100 µM (inactive) | > 100 µM (inactive) | 
